Key:
[1] = system: serum COMP, TNF-α, IL-1β, IL-6, IL-17A, PGE2 and NO in MIA-induced OA; test: OA biomarkers and inflammatory markers in serum sample (ELISA, Griess assay), MIA-induced OA; format: in vivo, Sprague Dawley rats; conditions: rat serum; for content of cartilage oligomeric matrix protein (COMP): day 28, FIG. 3; for content of IL-1β / content of IL-6 / content of IL-17A / content of TNF-α: day 28, FIG. 4; for content of PGE2: day 28, FIG. 5; for content of NO: day 28, Griess assay, FIG. 5
Protocol: The Sprague Dawley rats were divided into five groups, including one normal control group, one pathological control group, one comparative group, and two experimental groups (i.e., experimental groups 1 to 2) (n=5 rats in each group).
The right knee joint of the respective rat in the pathological control group, the comparative group, and the experimental groups 1 and 2 was intraarticularly injected with 30 μL of a monosodium iodoacetate (MIA) solution (50 g/L, in 0.9% normal saline). In addition, the right knee joint of the respective rat in the normal control group was intraarticularly injected with 30 μL of 0.9% normal saline.
On day 3 and day 14 after injection of the MIA solution, the right knee joint of the respective rat in the comparative group was intraarticularly injected with 30 μL of 1% HA, the right knee joint of the respective rat in the experimental group 1 was intraarticularly injected with 30 μL of the EGF solution (containing 20 μg/g EGF), the right knee joint of the respective rat in the experimental group 2 was intraarticularly injected with 30 μL of the mixture solution (containing 20 μg/g EGF), and the right knee joint of the respective rat in the pathological control group was intraarticularly injected with 30 μL of 0.9% normal saline. In addition, the rats of the normal control group received no treatment.
After determining the diameter of right knee joint at the end of day 28 as described in section D of this example, the rats in each group were sacrificed by virtue of 95% CO2 asphyxiation. Next, a blood sample was collected from the heart of each rat through arterial puncture using a 25G needle, and was then subjected to centrifugation at 1,500 g and 25° C. for 10 minutes, so as to obtain a serum sample. Thereafter, the right knee joint tissue of the respective rat in each group was obtained from each rat carcass and was washed with 0.9% normal saline.
The respective serum sample obtained in section E of this example was diluted 5-fold with RPMI 1640 medium. Thereafter, the content of cartilage oligomeric matrix protein (COMP) was determined using a rat COMP ELISA Kit (Cusabio, Cat. No. CSB-E13833r) in accordance with the manufacturer's instructions. In addition, the contents of TNF-α, IL-1β, IL-6, and IL-17A were respectively determined using a TNF-α ELISA Kit (Invitrogen, Cat. No. 88-7340-88), an IL-1β ELISA Kit (Invitrogen, Cat. No. 88-6010-22), an IL-6 ELISA Kit (Invitrogen, Cat. No. 88-50625-88), and an IL-17A ELISA Kit (Invitrogen, Cat. No. 88-7170-22) in accordance with the manufacturer's instructions. The content of prostaglandin E2 (PGE2) was determined using a PGE2 ELISA Kit (Cusabio, Cat. No. CSB-E07967r) in accordance with the manufacturer's instructions.
Moreover, the content of nitric oxide (NO) was determined using the Griess assay. Briefly, 100 μL of the respective serum sample obtained in section E of this example was mixed with 100 μL of a Griess reagent (containing 0.2% N-(1-Naphthyl)ethylenediamine, 2% sulfanilamide, and 5% phosphoric acid), followed by being left standing for reaction to proceed at room temperature for 10 minutes. The resultant reaction mixture was subsequently subjected to determination of absorbance at a wavelength of 540 nm (OD540) using a spectrophotometer. The OD540 values obtained were subsequently converted to concentration expressed in pg/mL based on a correlation curve previously prepared by plotting different known concentrations of sodium nitrate standards versus OD540 values thereof.
The data thus obtained were analyzed according to the method described in section 1 of “General Procedures”.

[2] = system: knee joint tissue of the hind leg, CII-induced RA; test: Histopathologic analysis of knee joint tissue of the hind leg, collagen-induced RA; format: in vivo, DBA/1 mice; conditions: mice; for morphological observation of cartilage structure and surface: knee joint of hind leg after day 42, data not shown
Protocol: 2 mg/mL of a Chick type II collagen (CII) solution (Chondrex Inc., Cat. No. 20012) (in 10 mM acetic acid) was mixed with complete Freund's adjuvant (Sigma Aldrich, Cat. No. F5881-10ML) at a ratio of 1:1 (v/v), so as to obtain a first CII emulsion. 2 mg/mL of a Chick type CII solution was mixed with incomplete Freund's adjuvant (ChemCruzx, Cat. No. sc-24648) at a ratio of 1:1 (v/v), so as to obtain a second CII emulsion.
The female DBA/1 mice were divided into five groups, including one normal control group, one pathological control group, one comparative group, and two experimental groups (i.e., experimental groups 1 to 2) (n=6 mice in each group). 200 μL of the first CII emulsion was injected subcutaneously into the tail of the respective mouse of the pathological control group, the comparative group, and the two experimental groups. The mice were subjected to a boost injection using 200 μL of the second CII emulsion on the 21st day after the initial immunization, so as to induce the occurrence of RA. In addition, the rats of the normal control group were injected with an adjuvant solution (in PBS).
After completion of the boost injection, the respective mouse in the comparative group was intraperitoneally injected with 100 μL of 1% HA, the respective mouse in the experimental group 1 was intraperitoneally injected with 100 μL of the EGF solution (containing 20 μg/g EGF) prepared in section C of Example 1, the respective mouse in the experimental group 2 was intraperitoneally injected with 100 μL of the mixture solution (containing 20 μg/g EGF) prepared in section C of Example 1. Each mouse was administered once daily for a total period of 20 days.
After completion of the evaluation of RA severity as described in section C of this example, the mice in each group were sacrificed by virtue of 95% CO2 asphyxiation, and the knee joint tissue of the hind leg and the sole tissue were obtained from each mouse carcass. The knee joint tissue of the hind leg of each mouse was subjected to histological sectioning, hematoxylin-eosin staining, and microscopic observation in sequence according to the methods described in section F of Example 1.
Next, the pathological symptoms (i.e., inflammatory cell infiltration, synovial hyperplasia, and cartilage surface erosion) in the respective tissue section was assessed according to the method described in Deng G. M. et al. (2005), Nat Med., 11:1066-1072. The degrees of inflammatory cell infiltration, synovial hyperplasia, and cartilage surface erosion were scored on a scale from 1 to 4. The higher the scale, the higher the severity of the pathological symptom is.
The data thus obtained were analyzed according to the method described in section 1 of the “General Procedures”.

Substance | content of cartilage oligomeric matrix protein (COMP) [1] | content of IL-1β [1] | content of IL-6 [1] | content of IL-17A [1] | content of TNF-α [1] | content of PGE2 [1] | content of NO [1] | morphological observation of cartilage structure and surface [2] | scale of cartilage surface erosion (scale 1 to 4) ([2]; knee joint of hind leg, FIG. 7) | scale of inflammatory cell infiltration (scale 1 to 4) ([2]; knee joint of hind leg, FIG. 7) | scale of synovial hyperplasia (scale 1 to 4) ([2]; knee joint of hind leg, FIG. 7)
EGF: Epidermal growth factor (Cat. No. 02-108, Joycom Bio-chem) dissolved in PBS, 20 μg/g EGF; given to experimental group 1 (NSDSECPLSHDGYCLHDGVCMYIEALDKYACNCVVGYIGERCQYRDLKWWELR; UniProt P01133 971-1023, looked up) | lower than that determined in the pathological control group | lower than those determined in the pathological control group | lower than those determined in the pathological control group | lower than those determined in the pathological control group | lower than those determined in the pathological control group | lower than those determined in the pathological control group | lower than those determined in the pathological control group | the cartilage structure was partially damaged, and a partially intact cartilage surface was observed | apparently or significantly lower than those determined in the pathological control group | apparently or significantly lower than those determined in the pathological control group | apparently or significantly lower than those determined in the pathological control group
hyaluronic acid [HA, reference compound] | lower than that determined in the pathological control group | lower than those determined in the pathological control group | lower than those determined in the pathological control group | lower than those determined in the pathological control group | lower than those determined in the pathological control group | lower than those determined in the pathological control group | lower than those determined in the pathological control group | the cartilage structure was partially damaged, and a partially intact cartilage surface was observed | – | – | –
